Source: patent US20160331771A1, “Treatment of Hyperproliferative Disorders Using Cardiac Glycosides” (EpicentRx, Inc., priority 2008, published 2016)

What was measured:
[1] = Example 2: two siblings given digoxin daily; type: in vivo, human; conditions: for improvement in pain levels and functionality: both patients
Method: Two siblings with severe rheumatoid arthritis characterized by progressive pain, stiffness and swelling of joints in spite of treatment with NSAIDs, narcotics, and immunosuppressants were given 0.125 mg of digoxin daily. No response was noted until the 5th day of treatment at which time both patients reported about a 10% improvement in pain levels and functionality, 2 weeks later the dose of digoxin was doubled to 0.25 mg and the patients both noted a proportional improvement in pain levels and functionality to 20%.

[2] = not given; remark: listed apart in the source
[3] = when used alone; cited from earlier work

Structure (SMILES): CN(Cc1cnc2nc(N)nc(N)c2n1)c1ccc(C(=O)N[C@@H](CCC(=O)O)C(=O)O)cc1 [Methotrexate]
- effectiveness of prior therapy (Methotrexate 5-10 mg q week with calcipotriene, phototherapy and NSAIDs, prior 4 months): moderately effective

Structure (SMILES): C[C@H]1O[C@@H](O[C@H]2[C@@H](O)C[C@H](O[C@H]3[C@@H](O)C[C@H](O[C@H]4CC[C@@]5(C)[C@H](CC[C@@H]6[C@@H]5C[C@@H](O)[C@]5(C)[C@@H](C7=CC(=O)OC7)CC[C@]65O)C4)O[C@@H]3C)O[C@@H]2C)C[C@H](O)[C@@H]1O [digoxin, 4-[(3S,5R,8R,9S,10S,12R,13S,14S,)-3-[(2S,4S,5R,6R)-5-[(2S,4S,5R,6R)-5-[(2S,4S,5R,6R)-4,5-dihydroxy-6-methyl-oxan-2-yl]oxy-4-hydroxy-6-methyl-oxan-2-yl]oxy-4-hydroxy-6-methyl-oxan-2-yl]oxy-12,14-dihydroxy-10,13-dimethyl-1,2,3,4,5,6,7,8,9,11,12,15,16,17-tetradecahydrocyclopenta[a]phenanthren-17-yl]-5H-furan-2-one]
- improvement in pain levels and functionality ([1]; 0.125 mg of digoxin daily, 5th day of treatment): ~10%
- side effects ([1]; digoxin 0.125 mg then 0.25 mg): No side effects
- improvement in pain levels and functionality ([1]; dose doubled to 0.25 mg 2 weeks later): 20%
- regression of wound area ([2]; 0.125 mg of digoxin, within 3 days): about 20%
- joint pain (for one month, next monthly visit): abated
- psoriasis at follow up (remained on 0.125 mg of digoxin, 2 months later, elbows and ankles, with return of joint pain): mild recrudescence
- plasma digoxin concentration at which adverse reactions are rare [3]: < 0.8 µg/L

Structure (SMILES): OC(Cn1cncn1)(Cn1cncn1)c1ccc(F)cc1F [fluconazole]
- change in the affected area ([2]; 1 week of treatment, before digoxin): no change
